Experimental data published in US9446039B2, “Aminoheteroaryl compounds as MTH1 inhibitors” (CEMM—FORSCHUNGSZENTRUM FÜR MOLEKULARE MEDIZIN GMBH, priority 2012, dated 2016).

Assays:
Type in all cases: binding
[1] = biological target: T1, SW480 colon carcinoma cells lysate proteins (Homo sapiens, UniProt Q8NC51); conditions: PreyGene SERBP1; SW480 cells
T1 sequence (Q8NC51 1-408): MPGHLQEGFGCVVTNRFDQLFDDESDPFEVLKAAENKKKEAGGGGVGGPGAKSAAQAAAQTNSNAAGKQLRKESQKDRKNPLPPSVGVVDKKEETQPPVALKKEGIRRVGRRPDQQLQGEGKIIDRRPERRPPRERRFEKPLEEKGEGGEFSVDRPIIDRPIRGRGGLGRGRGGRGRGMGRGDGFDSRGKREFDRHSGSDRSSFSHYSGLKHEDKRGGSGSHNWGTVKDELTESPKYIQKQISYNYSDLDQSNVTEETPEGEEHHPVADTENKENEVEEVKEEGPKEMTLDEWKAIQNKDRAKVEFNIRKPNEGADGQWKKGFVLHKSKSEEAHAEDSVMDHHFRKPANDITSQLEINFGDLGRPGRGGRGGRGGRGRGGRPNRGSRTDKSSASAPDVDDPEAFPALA

[2] = biological target: T2, SW480 colon carcinoma cells lysate proteins (Homo sapiens, UniProt Q15758); conditions: PreyGene SLC1A5
T2 sequence (Q15758 1-541): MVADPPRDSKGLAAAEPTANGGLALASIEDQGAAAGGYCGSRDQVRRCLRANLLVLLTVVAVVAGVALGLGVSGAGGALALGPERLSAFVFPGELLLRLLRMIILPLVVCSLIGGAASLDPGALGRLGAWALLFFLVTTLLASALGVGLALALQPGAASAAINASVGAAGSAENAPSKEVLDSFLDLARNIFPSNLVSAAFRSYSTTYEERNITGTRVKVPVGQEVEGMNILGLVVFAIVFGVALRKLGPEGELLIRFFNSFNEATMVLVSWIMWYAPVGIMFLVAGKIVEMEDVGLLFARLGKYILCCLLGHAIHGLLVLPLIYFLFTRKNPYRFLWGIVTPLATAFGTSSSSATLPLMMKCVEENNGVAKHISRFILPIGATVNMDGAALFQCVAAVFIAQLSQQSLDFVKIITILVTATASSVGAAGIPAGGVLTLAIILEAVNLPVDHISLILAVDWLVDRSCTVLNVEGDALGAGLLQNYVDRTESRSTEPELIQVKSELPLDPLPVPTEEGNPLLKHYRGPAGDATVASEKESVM

[3] = biological target: T3, SW480 colon carcinoma cells lysate proteins (Homo sapiens, UniProt Q01844); conditions: PreyGene EWSR1; SW480 cells
T3 sequence (Q01844 1-656): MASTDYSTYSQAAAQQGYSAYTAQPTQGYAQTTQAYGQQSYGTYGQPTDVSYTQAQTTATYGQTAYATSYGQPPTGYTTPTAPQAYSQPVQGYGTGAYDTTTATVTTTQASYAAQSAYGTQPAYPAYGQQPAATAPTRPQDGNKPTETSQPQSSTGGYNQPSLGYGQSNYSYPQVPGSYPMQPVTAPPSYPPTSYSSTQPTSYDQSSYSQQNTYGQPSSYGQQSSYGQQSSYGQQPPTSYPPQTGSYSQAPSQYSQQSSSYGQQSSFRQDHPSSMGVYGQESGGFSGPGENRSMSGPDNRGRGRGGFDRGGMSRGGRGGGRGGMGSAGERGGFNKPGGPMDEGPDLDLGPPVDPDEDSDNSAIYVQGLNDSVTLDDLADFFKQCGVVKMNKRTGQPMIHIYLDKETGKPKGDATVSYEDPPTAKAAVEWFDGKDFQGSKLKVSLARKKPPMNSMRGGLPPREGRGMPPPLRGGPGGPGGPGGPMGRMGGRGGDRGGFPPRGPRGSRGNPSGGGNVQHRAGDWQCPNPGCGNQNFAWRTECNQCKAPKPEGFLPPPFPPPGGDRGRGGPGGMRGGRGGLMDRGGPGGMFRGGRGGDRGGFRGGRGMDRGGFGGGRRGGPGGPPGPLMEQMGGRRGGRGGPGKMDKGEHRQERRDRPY

[4] = biological target: SW480 colon carcinoma cells lysate proteins (Homo sapiens, UniProt O43399); conditions: PreyGene TPD52L2
SW480 colon carcinoma cells lysate proteins (Homo sapiens, UniProt O43399), sequence (O43399 whole entry): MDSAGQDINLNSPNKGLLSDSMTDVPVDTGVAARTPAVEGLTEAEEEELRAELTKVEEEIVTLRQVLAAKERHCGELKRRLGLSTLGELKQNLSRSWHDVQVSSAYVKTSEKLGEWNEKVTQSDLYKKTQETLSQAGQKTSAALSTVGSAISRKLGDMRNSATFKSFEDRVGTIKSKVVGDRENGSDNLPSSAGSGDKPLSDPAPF

[5] = biological target: SW480 colon carcinoma cells lysate proteins (Homo sapiens, UniProt Q9NTK5); conditions: PreyGene OLA1; SW480 cells
SW480 colon carcinoma cells lysate proteins (Homo sapiens, UniProt Q9NTK5), sequence (Q9NTK5 whole entry): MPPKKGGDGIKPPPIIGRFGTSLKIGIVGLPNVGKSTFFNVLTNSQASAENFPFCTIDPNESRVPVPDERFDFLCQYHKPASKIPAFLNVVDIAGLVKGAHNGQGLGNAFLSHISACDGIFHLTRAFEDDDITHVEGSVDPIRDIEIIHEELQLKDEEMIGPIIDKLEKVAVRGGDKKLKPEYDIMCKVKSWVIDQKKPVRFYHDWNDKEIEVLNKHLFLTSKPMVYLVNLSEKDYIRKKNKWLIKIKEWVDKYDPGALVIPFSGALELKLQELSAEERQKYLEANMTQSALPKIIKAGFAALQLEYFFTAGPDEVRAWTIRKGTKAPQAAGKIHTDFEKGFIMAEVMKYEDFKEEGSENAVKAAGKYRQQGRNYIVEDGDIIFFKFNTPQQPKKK

[6] = biological target: SW480 colon carcinoma cells lysate proteins (Homo sapiens, UniProt P27695); conditions: PreyGene APEX1
SW480 colon carcinoma cells lysate proteins (Homo sapiens, UniProt P27695), sequence (P27695 whole entry): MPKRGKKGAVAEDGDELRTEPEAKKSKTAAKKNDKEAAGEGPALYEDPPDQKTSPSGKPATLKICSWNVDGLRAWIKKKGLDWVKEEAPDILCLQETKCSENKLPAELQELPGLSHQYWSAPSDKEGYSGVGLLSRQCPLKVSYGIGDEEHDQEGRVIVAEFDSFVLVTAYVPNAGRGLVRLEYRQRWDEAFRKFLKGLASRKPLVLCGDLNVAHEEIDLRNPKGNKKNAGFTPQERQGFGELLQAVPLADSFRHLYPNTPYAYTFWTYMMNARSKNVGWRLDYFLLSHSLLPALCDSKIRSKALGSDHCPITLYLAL

[7] = biological target: SW480 colon carcinoma cells lysate proteins (Homo sapiens, UniProt P37802); conditions: PreyGene TAGLN2
SW480 colon carcinoma cells lysate proteins (Homo sapiens, UniProt P37802), sequence (P37802 whole entry): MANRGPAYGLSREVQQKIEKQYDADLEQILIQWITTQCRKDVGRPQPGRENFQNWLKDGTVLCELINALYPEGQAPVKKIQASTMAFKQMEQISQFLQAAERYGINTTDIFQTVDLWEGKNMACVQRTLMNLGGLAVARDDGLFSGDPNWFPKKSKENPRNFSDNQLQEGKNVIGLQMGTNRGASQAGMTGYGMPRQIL

[8] = biological target: T4, SW480 colon carcinoma cells lysate proteins (Homo sapiens, UniProt P61916); conditions: PreyGene NPC2
T4 sequence (P61916 20-151): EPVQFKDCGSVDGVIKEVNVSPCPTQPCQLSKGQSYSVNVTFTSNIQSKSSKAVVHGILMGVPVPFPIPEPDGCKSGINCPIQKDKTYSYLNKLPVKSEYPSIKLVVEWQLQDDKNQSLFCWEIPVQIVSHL

C[C@H](Oc1cc(-c2cnn(C3CCNCC3)c2)cnc1N)c1c(Cl)ccc(F)c1Cl [(5)-crizotinib]
0.191: AvgP [4]
0.1795: AvgP [7]
11: Sum (SC.Exp.) [7]
0.3813: AvgP [8]
1: SC.Exp. 1-1 [2] | SC.Exp. 1-2 [3] | SC.Exp. Sum [3] | SC.Exp. 1-1 [5] | SC.Exp. 1-2 [5]
0: AvgP [1] | SC.Exp. 1-2 [2] | AvgP [3] | SC.Exp. 1-1 [3] | SC.Exp. 2-1 [3] | SC.Exp. 2-2 [3] | SC.Exp. 1-1 [4] | SC.Exp. 2-1 [4] | SC.Exp. 2-2 [4] | AvgP [5] | SC.Exp. 2-1 [5] | SC.Exp. 2-2 [5] | SC.Exp. 1-2 [6] | SC.Exp. 2-1 [6] | SC.Exp. 2-2 [6] | SC.Exp. 2-1 [7] | SC.Exp. 2-2 [7] | SC.Exp. 2-1 [8] | SC.Exp. 2-2 [8]
3: SC.Exp. 2-1 [2]
10: SC.Exp. 1-2 [1]
0.1792: AvgP [6]
2: SC.Exp. 2-2 [2] | SC.Exp. 1-2 [4] | Sum (SC.Exp.) [4] | SC.Exp. Sum [5] | SC.Exp. 1-1 [6] | Sum (SC.Exp.) [6] | SC.Exp. 1-1 [8] | SC.Exp. 1-2 [8]
8: SC.Exp. 1-1 [1]
5: SC.Exp. 2-1 [1] | SC.Exp. 1-2 [7]
4: Sum (SC.Exp.) [8]
6: SC.Exp. 2-2 [1] | Sum (SC.Exp.) [2] | SC.Exp. 1-1 [7]
0.227: AvgP [2]
29: SC.Exp. Sum [1]
